Earlier results as cited in patent publication US6504031B1, “Naphthamidine urokinase inhibitors” (priority 1998, dated 2003).

Experiments:
[1] = test system: angiogenesis; details: J. Cell Biol. 1991, 115[3 Pt 2], 402a
[2] = test system: tumor metastasis; details: Anticancer Res. 1988, 8, 1373-1376

N=C(N)NC(=O)c1nc(Cl)c(N)nc1N [Amiloride]
inhibition of angiogenesis in vitro [1]: inhibit
inhibition of tumor metastasis in vivo [2]: inhibit tumor metastasis
